Source: patent US9686985B2, “Fungicide N-cycloalkyl-N-bicyclicmethylene-carboxamide derivatives” (BAYER INTELLECTUAL PROPERTY GMBH, priority 2012, dated 2017)

What was measured:
[1] = log P by HPLC on reversed-phase column (EEC Directive 79/831 Annex V.A8); type: physicochemical; details: Table 1; HPLC C18, 40° C., 0.1% aqueous formic acid and acetonitrile gradient
Summary of the method: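 Retention times were converted to log P by linear interpolation between two successive unbranched alkan-2-ones (3 to 16 carbon atoms) of known log P used for calibration. Elution ran at 40° C with a linear gradient from 10% to 90% acetonitrile against 0.1% aqueous formic acid.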

[2] = system: Sphaerotheca fuliginea; assay: Example A: in vivo preventive test on Sphaerotheca fuliginea (cucumber)
Experimental: Example A: In Vivo Preventive Test on Sphaerotheca fuliginea (Cucumber) [table] To produce a suitable preparation of active compound, 1 part by weight of active compound is mixed with the stated amounts of solvent and emulsifier, and the concentrate is diluted with water to the desired concentration. To test for preventive activity, young plants are sprayed with the preparation of active compound at the stated rate of application. One day after this treatment, the plants are inoculated with an aqueous spore suspension of Sphaerotheca fuliginea. Then the plants are placed in a greenhouse at approximately 23° C. and a relative atmospheric humidity of approximately 70%.

[3] = system: Alternaria solani; assay: Example C: in vivo preventive test on Alternaria solani (tomato)
Experimental: Example C: In Vivo Preventive Test on Alternaria solani (Tomato) [table] To produce a suitable preparation of active compound, 1 part by weight of active compound is mixed with the stated amounts of solvent and emulsifier, and the concentrate is diluted with water to the desired concentration. To test for preventive activity, young plants are sprayed with the preparation of active compound at the stated rate of application. One day after this treatment, the plants are inoculated with an aqueous spore suspension of Alternaria solani. The plants remain for one day in an incubation cabinet at approximately 22° C. and a relative atmospheric humidity of 100%. Then the plants are placed in an incubation cabinet at approximately 20° C. and a relative atmospheric humidity of 96%.

[4] = system: Venturia inaequalis; assay: Example E: in vivo preventive test on Venturia inaequalis (apples); details: table E, 100 ppm, evaluated 10 days after inoculation
Experimental: Example E: In Vivo Preventive Test on Venturia inaequalis (Apples) [table] To produce a suitable preparation of active compound, 1 part by weight of active compound is mixed with the stated amounts of solvent and emulsifier, and the concentrate is diluted with water to the desired concentration. To test for preventive activity, young plants are sprayed with the preparation of active compound at the stated rate of application. After the spray coating has dried on, the plants are inoculated with an aqueous conidia suspension of the causal agent of apple scab (Venturia inaequalis) and then remain for 1 day in an incubation cabinet at approximately 20° C. and a relative atmospheric humidity of 100%. The plants are then placed in a greenhouse at approximately 21° C. and a relative atmospheric humidity of approximately 90%.

[5] = system: Uromyces appendiculatus; assay: Example G: in vivo preventive test on Uromyces appendiculatus (bean rust); details: table G1; 500 ppm; bean plants; grading 11 days after contamination
Summary of the method: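 Bean plants ("Saxa") at the 2-leaf stage, grown at 24° C., sprayed preventively with active ingredient, then inoculated 24 h later with U. appendiculatus spores (150 000 spores per mL). Incubated 24 h at 20° C./100% RH, then 10 days at 20° C./70-80% RH; % efficacy graded 11 days after contamination versus solvent-treated controls.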

[6] = system: Blumeria graminis f.sp. hordei; assay: Example I: in vivo preventive test on Blumeria graminis (barley); details: table I, 500 ppm, evaluated 7 days after inoculation
Experimental: Example I: In Vivo Preventive Test on Blumeria graminis (Barley) [table] To produce a suitable preparation of active compound, 1 part by weight of active compound or active compound combination is mixed with the stated amounts of solvent and emulsifier, and the concentrate is diluted with water to the desired concentration. To test for preventive activity, young plants are sprayed with the preparation of active compound or active compound combination at the stated rate of application. After the spray coating has been dried, the plants are dusted with spores of Blumeria graminis f.sp. hordei. The plants are placed in the greenhouse at a temperature of approximately 18° C. and a relative atmospheric humidity of approximately 80% to promote the development of mildew pustules.

[7] = system: Pyrenophora teres; assay: Example M: in vivo preventive test on Pyrenophora teres (barley); details: table M, 500 ppm, evaluated 8 days after inoculation
Experimental: Example M: In Vivo Preventive Test on Pyrenophora teres (Barley) [table] To produce a suitable preparation of active compound, 1 part by weight of active compound or active compound combination is mixed with the stated amounts of solvent and emulsifier, and the concentrate is diluted with water to the desired concentration. To test for preventive activity, young plants are sprayed with the preparation of active compound or active compound combination at the stated rate of application. After the spray coating has been dried, the plants are sprayed with a spore suspension of Pyrenophora teres. The plants remain for 48 hours in an incubation cabinet at approximately 20° C. and a relative atmospheric humidity of approximately 100%. The plants are placed in the greenhouse at a temperature of approximately 20° C. and a relative atmospheric humidity of approximately 80%.

[8] = system: Botrytis cinerea; assay: Example S: in vivo preventive test on Botrytis cinerea (grey mould); details: table S; 500 ppm; gherkin plants; grading 4 to 5 days after contamination
Experimental: Example S: In Vivo Preventive Test on Botrytis cinerea (Grey Mould) […] Gherkin plants (“Vert petit de Paris” variety), sown in starter cups on a 50/50 peat soil pozzolana substrate and grown at 24° C., are treated at the Z11 cotyledon stage by spraying with the active ingredient prepared as described above. Plants, used as controls, are treated with the mixture of acetone/tween/DMSO/water not containing the active material. After 24 hours, the plants are contaminated by spraying the cotyledons with an aqueous suspension of cryopreserved Botrytis cinerea spores (50 000 spores per mL). The spores are suspended in a nutrient solution composed of 10 g/L of PDB, 50 g/L of D-Fructose, 2 g/L of NH4NO3 and 1 g/L of KH2PO4. The contaminated gherkin plants are incubated at 17° C. and at 90% relative humidity. Grading (% of efficacy) is carried out 4 to 5 days after the contamination, in comparison with the control plants.

[9] = table A1, 100 ppm of active ingredient, evaluated 7 days after inoculation
[10] = table A2, dose 100 ppm, comparison with WO-2010/086311 compounds
[11] = table C1, 100 ppm, evaluated 7 days after inoculation

Row | logP [1] | SMILES | Efficacy [2, 9] [%] | Efficacy [2, 10] [%] | Efficacy [3, 11] [%] | Efficacy [4] [%] | Efficacy [5] [%] | Efficacy [6] [%] | Efficacy [7] [%] | Efficacy [8] [%] | Efficacy ([3]; table C2, dose 100 ppm, comparison with WO-2010/086311 compound) [%] | Efficacy ([3]; table C2, dose 100 ppm, comparison with WO-2010/086311 compound, listed as 1.23)
1 | 3.53 | Cn1nc(C(F)F)c(C(=O)N(CC2CC(C)(C)Oc3ccccc32)C2CC2)c1F (centres unmarked) [I.33] | 94 | 94 | 100 | 97 | 100 | 100 | 100 | 80 | – | –
2 | 4.08 | CC(C1CCCc2ccccc21)N(C(=O)c1c(C(F)F)nn(C)c1F)C1CC1 (centres unmarked) [I.23] | 94 | 94 | 90 | 100 | 100 | 78 | 100 | 85 | 90 | at least 90%
